Publication PMC9545004, “Transglutaminase 2 affinity and enzyme‐substrate intermediate stability as determining factors for T‐cell responses to gluten peptides in celiac disease” (European Journal of Immunology, 2022)
No end group written: not given here. *: point of attachment. FITC = O=C1OC2(c3ccc(O)cc3Oc3cc(O)ccc32)c2ccc(NC(=S)*)cc21; Ahx = NCCCCCC(=O)O

T1: Recombinant human TG2 (Homo sapiens, UniProt P21980)
T1 construct: His-tag (C); made in house; host or cells: Sf+ express insect cells (pACAB3 vector)
T1 sequence (P21980 1-687): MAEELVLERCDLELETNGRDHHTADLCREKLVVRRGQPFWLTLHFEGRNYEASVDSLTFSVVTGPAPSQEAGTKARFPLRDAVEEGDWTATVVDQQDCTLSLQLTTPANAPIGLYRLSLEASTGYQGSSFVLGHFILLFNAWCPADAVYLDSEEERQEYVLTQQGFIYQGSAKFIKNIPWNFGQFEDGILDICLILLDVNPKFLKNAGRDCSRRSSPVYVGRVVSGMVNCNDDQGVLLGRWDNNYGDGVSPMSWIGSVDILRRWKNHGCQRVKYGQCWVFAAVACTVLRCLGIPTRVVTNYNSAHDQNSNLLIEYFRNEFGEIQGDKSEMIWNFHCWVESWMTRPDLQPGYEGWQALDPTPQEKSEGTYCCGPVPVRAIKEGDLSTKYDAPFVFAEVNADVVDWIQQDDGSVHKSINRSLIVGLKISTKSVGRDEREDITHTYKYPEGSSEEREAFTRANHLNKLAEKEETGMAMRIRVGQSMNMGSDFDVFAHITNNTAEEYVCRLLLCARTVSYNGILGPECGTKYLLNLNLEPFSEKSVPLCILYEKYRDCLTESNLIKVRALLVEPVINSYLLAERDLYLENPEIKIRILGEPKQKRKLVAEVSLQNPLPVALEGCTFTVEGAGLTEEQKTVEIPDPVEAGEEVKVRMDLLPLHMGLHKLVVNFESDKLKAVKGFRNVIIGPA

T2: Recombinant human transglutaminase 2 (human, UniProt P21980 1-687)
T2 construct: human transglutaminase 2 (TGM2), cloned into the pACAB3 vector; Used enzymatically active with CaCl2; also called TG2; recombinant TG2
T2 sequence (looked up): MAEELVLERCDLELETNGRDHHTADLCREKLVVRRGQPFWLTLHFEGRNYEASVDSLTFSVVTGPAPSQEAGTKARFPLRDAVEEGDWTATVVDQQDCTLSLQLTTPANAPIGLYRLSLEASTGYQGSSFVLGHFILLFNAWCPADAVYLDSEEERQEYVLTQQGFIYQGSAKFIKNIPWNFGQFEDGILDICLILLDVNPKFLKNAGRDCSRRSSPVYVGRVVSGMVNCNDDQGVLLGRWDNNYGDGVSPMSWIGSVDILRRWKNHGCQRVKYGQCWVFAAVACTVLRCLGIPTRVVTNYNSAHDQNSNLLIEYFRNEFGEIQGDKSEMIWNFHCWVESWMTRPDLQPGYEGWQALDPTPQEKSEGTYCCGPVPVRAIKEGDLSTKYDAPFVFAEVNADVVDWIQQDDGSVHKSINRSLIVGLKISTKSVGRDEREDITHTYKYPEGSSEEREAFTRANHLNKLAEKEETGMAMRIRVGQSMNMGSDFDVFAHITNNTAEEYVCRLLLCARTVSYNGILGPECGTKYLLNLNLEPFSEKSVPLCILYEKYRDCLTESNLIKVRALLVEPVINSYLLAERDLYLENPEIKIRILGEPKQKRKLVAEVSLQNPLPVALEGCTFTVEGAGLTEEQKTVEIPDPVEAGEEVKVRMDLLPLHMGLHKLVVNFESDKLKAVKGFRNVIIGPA


How the values were obtained:
Recombinant human TG2 = molecular target: T1, Recombinant human TG2; assay: TG2 enzyme kinetic assay, GDH-coupled ammonia release; assay type: biochemical; conditions: for Km / kcat / kcat/Km: GDH-coupled, MOPS pH 7.2, TG2 50 µg/mL, 37°C, A340; for Km / kcat: mean and SD from three independent experiments
Description: To test the influence of substrate affinity for TG2 on B‐cell uptake, we determined kinetic parameters for gluten peptides harboring the essential TG2 targeted glutamine residue within the DQ2.5‐glia‐α2, DQ2.5‐glia‐ω2, DQ2.5‐glia‐γ1, or DQ2.5‐glia‐γ3 T‐cell epitopes. To directly compare differences in TG2 affinity between the glutamines from the different peptides, we tested 9‐mer peptides harboring only one TG2 targeted glutamine residue.
Recombinant human TG2 with a C‐terminal His‐tag was expressed in Sf+ express insect cells. Briefly, human TGM2 was cloned into the pACAB3 vector, and protein was expressed for 3 days followed by lysis and purification by nickel‐nitrilotriacetic acid affinity chromatography as previously described.
Kinetic parameters for the 9‐mer peptides α2, ω2, γ1, and γ3 were measured using a coupled GDH catalyzed reaction assay performed in microtiter plates as previously described. Here, the following components were used: (1) a 5× stock MOPS buffer consisting of 1 M 3‐(N‐morpholino)propanesulfonic acid pH 7.2, 25 mM CaCl2, 5 mM ETDA, and 50 mM α‐ketoglutarate (Sigma Aldrich) in distilled water; (2) nicotinamide adenine dinucleotide hydrogen (NADH, Sigma–Aldrich); (3) GDH from beef liver (Roche); (4) gluten peptides; (5) recombinant TG2 solved in 1mM EDTA/Tris‐buffered saline. Components 1–4 were mixed in PCR‐strips (Axygen) to give final concentrations of 1x stock buffer, 1 mM NADH, 0.125 U/µL GDH, and various peptide concentrations. The mixture was preincubated in the dark for 15 min, and the reaction was started by the addition of recombinant TG2 (final concentration of 50 µg/mL) followed by transfer to a microtiter plate (Thermo Scientific). Absorbance (340 nm) was measured continuously for 50 min at 37°C using a Victor 3V Multi‐Label Microplate Reader (Perkin Elmer‐Wallac). Initial reaction velocities were calculated from the linear area of the absorbance curves by determining the change in absorbance over time compared to the change from an NADH standard curve. The Michaelis constants (K M) and turnover rates (k cat) were calculated using the k cat equation analysis tool in GraphPad Prism 8.3.0 (GraphPad Software).

[1] = molecular target: T2, Recombinant human transglutaminase 2
[2] = molecular target: T2, Recombinant human transglutaminase 2; assay: flow cytometry on cells; recombinant TG2 (3 µg/mL), 5 µM FITC peptide and 2 mM CaCl2 in RPMI with A20 cells expressing the TG2-specific BCR 679-14-E06, 37°C; stopped with EDTA, cells washed and fixed; cell-bound FITC peptide read as delta MFI against A20 cells with the non-TG2-specific BCR 693-2-F02; conditions: both partners purified

Row | Km (Recombinant human TG2) | kcat (Recombinant human TG2) | Km of TG2 turnover, GDH-coupled ammonia release assay (formation of the thioester intermediate complex), 37°C, pH 7.2 [1] | binding result [2] | Molecule | also measured
1 | 130 ± 30 µM | 23.2±1.0 min^–1 | – | – | Ac‐QP Q QPYPQQ [γ3] | –
2 | 240 ± 20 µM | 24.0±0.7 min^–1 | – | – | Ac‐QQSFP Q QQR [γ1] | kcat/Km (Recombinant human TG2): 100 min^–1/mM; affinity to TG2 (Km), in words (Recombinant human TG2; native 9-mer peptides, compared with the other 9-mers): twofold lower affinity to TG2
3 | 130 ± 20 µM | 25.7±0.8 min^–1 | – | – | PQP Q LPYPQ [α2] | kcat/Km (Recombinant human TG2): 197 min^–1/mM
4 | 100 ± 20 µM | 27.6±1.0 min^–1 | – | – | PQP Q QPFPW [ω2] | kcat/Km (Recombinant human TG2): 276 min^–1/mM
5 | – | – | 0.13 mM | – | PQPQLPYPQ [α2 9-mer gliadin peptide (native, harbouring the DQ2.5-glia-α2 epitope)] | –
6 | – | – | 0.1 mM | – | PQPQQPFPW [ω2 9-mer gliadin peptide (native, harbouring the DQ2.5-glia-ω2 epitope)] | –
7 | – | – | – | binds | {FITC-Ahx}-QQSFPQQQR (native 9-mer from γ-gliadin; The unlabelled peptide is N-terminally acetylated; also called FITC-γ1; source: synthetic peptide) [FITC-labeled γ1 9-mer gliadin peptide (native)] | –
8 | – | – | – | binds | {FITC-Ahx}-PQPQLPYPQ (also called FITC-α2; source: synthetic peptide) [FITC-labeled α2 9-mer gliadin peptide (native)] | –
9 | – | – | – | binds | {FITC-Ahx}-PQPQQPFPW (also called FITC-ω2; source: synthetic peptide) [FITC-labeled ω2 9-mer gliadin peptide (native)] | –
10 | – | – | – | binds | {FITC-Ahx}-QPQQPYPQQ (native 9-mer from γ-gliadin; The unlabelled peptide is N-terminally acetylated; also called FITC-γ3; source: synthetic peptide) [FITC-labeled γ3 9-mer gliadin peptide (native)] | –
11 | – | – | 0.24 mM | – | Ac-QQSFPQQQR | –
12 | – | – | 0.13 mM | – | Ac-QPQQPYPQQ | –
